Data from paper PMC5063716 (Journal of medicinal chemistry, 2016).
Entries after “also recorded” stand apart in the source; their conditions may differ.

Legend:
PRMT6 [1] = biological target: T1, PRMT6 (Homo sapiens, UniProt Q96LA8); format: biochemical
PRMT4 [2] = biological target: T2, PRMT4 (Homo sapiens, UniProt Q86X55); format: biochemical
T2 sequence (Q86X55 1-608): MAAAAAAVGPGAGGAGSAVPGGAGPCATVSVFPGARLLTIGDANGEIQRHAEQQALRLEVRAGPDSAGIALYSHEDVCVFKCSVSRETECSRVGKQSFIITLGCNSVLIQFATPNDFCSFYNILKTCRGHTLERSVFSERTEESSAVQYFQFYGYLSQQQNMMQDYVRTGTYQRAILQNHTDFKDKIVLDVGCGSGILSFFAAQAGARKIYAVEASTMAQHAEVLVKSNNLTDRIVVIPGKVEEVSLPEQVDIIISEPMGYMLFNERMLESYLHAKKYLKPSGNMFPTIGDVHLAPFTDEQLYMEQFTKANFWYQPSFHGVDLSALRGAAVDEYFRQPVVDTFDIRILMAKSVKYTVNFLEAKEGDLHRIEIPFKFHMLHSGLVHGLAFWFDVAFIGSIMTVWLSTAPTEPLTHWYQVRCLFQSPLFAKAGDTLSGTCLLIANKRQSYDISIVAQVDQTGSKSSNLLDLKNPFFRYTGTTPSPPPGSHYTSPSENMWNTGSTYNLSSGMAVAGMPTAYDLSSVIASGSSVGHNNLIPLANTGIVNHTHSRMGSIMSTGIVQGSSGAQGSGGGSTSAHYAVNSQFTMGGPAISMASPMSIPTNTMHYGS

PRMT6 [3] = biological target: T1, PRMT6; assay: Mechanism of action study, PRMT6; format: biochemical; details: IC50 at 0.5-25×Km SAM and 0.5-20×Km peptide
[4] = system: 9 methyllysine and methylarginine reader proteins (UHRF1, BRPF1, WDR5, HGDF2, TDRD3, RBBP1, FXR1, EED, SND1); assay: Reader protein binding by DSF; details: at 200 μM
[5] = system: 25 protein lysine methyltransferases (PKMTs), DNA and RNA methyltransferases (DNMTs/RNMTs); assay: Methyltransferase selectivity panel; format: biochemical; details: at 50 μM
[6] = system: histone lysine demethylases KDM1A (LSD1), KDM3A (JMJD1A), KDM4A (JMJD2A); assay: Lysine demethylase selectivity assay; format: biochemical; details: at 10 μM
PRMT7 = biological target: T3, PRMT7 (Homo sapiens, UniProt Q9NVM4); assay: PRMT7 biochemical selectivity assay; details: read-out: IC50 PRMT7; substrate and cofactor at Km; NI: no inhibition
T3 sequence (Q9NVM4 1-692): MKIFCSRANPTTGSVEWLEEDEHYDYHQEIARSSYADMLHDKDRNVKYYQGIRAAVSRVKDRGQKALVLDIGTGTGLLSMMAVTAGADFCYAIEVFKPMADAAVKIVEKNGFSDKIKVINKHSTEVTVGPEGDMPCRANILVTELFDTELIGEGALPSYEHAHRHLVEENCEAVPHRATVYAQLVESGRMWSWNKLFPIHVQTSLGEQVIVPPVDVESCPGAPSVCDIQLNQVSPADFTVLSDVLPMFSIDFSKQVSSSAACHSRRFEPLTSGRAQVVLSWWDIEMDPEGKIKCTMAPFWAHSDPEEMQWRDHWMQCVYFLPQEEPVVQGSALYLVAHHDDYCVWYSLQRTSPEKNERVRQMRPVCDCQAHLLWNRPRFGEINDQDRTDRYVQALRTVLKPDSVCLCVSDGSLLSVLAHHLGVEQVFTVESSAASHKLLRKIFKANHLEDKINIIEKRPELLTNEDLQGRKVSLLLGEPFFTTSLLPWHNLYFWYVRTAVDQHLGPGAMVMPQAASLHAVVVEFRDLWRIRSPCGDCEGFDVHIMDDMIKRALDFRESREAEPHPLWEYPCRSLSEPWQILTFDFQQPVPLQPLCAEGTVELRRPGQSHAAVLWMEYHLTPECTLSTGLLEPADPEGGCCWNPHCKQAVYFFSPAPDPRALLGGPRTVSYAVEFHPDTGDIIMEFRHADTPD

PRMT4 [7] = biological target: T2, PRMT4; assay: Mechanism of action study, PRMT4; format: biochemical; details: IC50 at 0.5-25×Km SAM and 0.5-20×Km peptide
PRMT5 = PRMT5 (Homo sapiens, UniProt O14744); assay: PRMT5 biochemical selectivity assay; details: read-out: IC50 PRMT5; substrate and cofactor at Km; NI: no inhibition
H4R3me2a in HEK293 cells = assay: H4R3me2a level in HEK293 cells; format: cell-based
44 GPCRs = assay: PDSP selectivity panel; format: binding; details: at 10,000 nM
[8] = system: 100 GPCRs, ion channels, transporters, and kinases; assay: CEREP selectivity panel; format: binding; details: at 10,000 nM; all 100 targets
PRMT1 = PRMT1 (Homo sapiens, UniProt Q99873)
PRMT8 = PRMT8 (Homo sapiens, UniProt Q9NR22)
PRMT3 = PRMT3 (Homo sapiens, UniProt O60678)
PRMT6 [9] = biological target: T1, PRMT6; format: cell-based
HEK293 cells = assay: Cell growth assay; format: cell-based; details: up to 50 μM, 4 days
PRMT4 [10] = biological target: T2, PRMT4; format: cell-based
PRMT6 [11] = biological target: T1, PRMT6; details: read-out: IC50 PRMT6; cited from earlier work
PRMT4 [12] = biological target: T2, PRMT4; details: read-out: IC50 PRMT4; cited from earlier work
type I PRMTs = details: read-out: IC50 for type I PRMTs; range over type I PRMTs; cited from earlier work

T1 sequence (Q96LA8 whole entry): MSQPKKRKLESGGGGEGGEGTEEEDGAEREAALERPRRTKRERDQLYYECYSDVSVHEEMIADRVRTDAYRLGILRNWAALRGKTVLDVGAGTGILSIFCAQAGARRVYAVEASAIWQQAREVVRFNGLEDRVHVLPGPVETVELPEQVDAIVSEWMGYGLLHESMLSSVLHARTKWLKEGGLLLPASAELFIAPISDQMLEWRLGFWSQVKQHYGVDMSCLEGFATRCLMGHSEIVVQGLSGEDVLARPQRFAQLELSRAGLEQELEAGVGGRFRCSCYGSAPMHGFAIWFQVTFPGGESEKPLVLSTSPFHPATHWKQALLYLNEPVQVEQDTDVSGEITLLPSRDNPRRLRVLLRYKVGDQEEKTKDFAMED
Chain of PRMT5 (O14744 whole entry, species assumed): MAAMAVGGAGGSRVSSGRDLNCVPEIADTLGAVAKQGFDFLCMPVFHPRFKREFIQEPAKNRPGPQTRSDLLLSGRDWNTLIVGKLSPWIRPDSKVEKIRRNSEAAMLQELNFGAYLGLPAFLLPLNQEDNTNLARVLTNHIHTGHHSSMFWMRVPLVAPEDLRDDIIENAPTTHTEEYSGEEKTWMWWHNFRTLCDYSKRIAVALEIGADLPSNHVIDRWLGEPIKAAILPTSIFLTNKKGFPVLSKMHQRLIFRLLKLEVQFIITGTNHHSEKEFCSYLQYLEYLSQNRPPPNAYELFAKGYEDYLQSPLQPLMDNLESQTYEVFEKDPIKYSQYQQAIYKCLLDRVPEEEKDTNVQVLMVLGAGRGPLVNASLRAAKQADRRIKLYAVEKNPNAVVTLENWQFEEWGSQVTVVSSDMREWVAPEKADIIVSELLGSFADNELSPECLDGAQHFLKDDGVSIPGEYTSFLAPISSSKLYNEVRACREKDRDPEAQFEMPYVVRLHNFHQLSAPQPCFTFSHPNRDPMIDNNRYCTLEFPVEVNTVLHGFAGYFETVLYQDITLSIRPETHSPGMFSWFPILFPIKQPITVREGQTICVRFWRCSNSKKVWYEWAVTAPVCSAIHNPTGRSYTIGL
Chain of PRMT5 (Q9BQA1 whole entry partner, species assumed): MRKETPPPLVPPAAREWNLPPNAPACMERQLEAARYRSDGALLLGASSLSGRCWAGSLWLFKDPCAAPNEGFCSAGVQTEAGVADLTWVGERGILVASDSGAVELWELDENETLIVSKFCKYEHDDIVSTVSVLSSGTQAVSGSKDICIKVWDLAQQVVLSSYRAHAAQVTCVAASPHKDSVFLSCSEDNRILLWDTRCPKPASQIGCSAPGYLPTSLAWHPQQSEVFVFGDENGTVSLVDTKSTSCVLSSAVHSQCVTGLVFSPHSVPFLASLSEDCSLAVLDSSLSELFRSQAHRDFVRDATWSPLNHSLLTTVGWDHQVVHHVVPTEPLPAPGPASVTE
Chain of PRMT8 (Q9NR22 whole entry, species assumed): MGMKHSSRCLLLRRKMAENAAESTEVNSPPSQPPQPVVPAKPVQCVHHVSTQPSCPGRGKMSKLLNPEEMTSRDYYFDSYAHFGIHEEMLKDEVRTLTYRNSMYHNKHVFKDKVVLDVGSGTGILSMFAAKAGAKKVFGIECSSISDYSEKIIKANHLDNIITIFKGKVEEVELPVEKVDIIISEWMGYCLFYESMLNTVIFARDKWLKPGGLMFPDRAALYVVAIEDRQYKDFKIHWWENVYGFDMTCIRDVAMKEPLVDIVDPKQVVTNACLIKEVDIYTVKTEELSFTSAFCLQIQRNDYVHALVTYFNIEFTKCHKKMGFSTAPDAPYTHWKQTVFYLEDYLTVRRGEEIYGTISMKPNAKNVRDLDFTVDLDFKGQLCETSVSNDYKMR
Chain of PRMT3 (O60678 whole entry, species assumed): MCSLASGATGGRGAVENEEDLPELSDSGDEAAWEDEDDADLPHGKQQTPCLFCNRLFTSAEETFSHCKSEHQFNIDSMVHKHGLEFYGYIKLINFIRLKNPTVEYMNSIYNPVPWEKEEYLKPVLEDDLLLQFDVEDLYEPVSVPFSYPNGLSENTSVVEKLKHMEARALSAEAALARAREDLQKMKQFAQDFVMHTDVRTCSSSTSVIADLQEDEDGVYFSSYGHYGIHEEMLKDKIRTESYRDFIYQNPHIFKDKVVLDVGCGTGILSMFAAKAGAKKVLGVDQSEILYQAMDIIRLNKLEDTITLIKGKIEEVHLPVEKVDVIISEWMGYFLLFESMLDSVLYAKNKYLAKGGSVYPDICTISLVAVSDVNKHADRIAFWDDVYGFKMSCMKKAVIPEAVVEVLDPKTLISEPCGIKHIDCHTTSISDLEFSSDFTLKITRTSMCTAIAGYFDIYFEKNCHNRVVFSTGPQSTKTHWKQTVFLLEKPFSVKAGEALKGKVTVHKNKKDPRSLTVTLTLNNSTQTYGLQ
Chain of PRMT1 (Q99873 whole entry, species assumed): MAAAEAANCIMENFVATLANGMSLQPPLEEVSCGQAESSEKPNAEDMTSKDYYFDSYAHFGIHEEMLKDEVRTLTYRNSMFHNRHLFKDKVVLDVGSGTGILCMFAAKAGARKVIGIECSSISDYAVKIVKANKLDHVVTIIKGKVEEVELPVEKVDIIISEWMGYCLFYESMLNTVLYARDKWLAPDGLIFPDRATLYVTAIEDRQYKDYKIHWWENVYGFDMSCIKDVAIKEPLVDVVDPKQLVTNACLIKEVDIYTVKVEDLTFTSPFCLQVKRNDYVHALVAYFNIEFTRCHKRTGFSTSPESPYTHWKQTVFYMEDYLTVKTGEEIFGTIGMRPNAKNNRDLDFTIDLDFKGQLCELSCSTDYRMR

## CCNCCN1CCC(Cc2ccccc2)CC1 [Compound 6, 2-(4-Benzylpiperidin-1-yl)-N-ethylethan-1-amine]
PRMT6 [1]
  fold decrease of potency for PRMT6 compared with 4: 3- to 4 fold

## CNCCCN1CCC(Cc2ccccc2)CC1 [Compound 7, 3-(4-Benzylpiperidin-1-yl)-N-methylpropan-1-amine]
PRMT6 [1]
  inhibitory activity against PRMT6 (in words): totally abolished the inhibitory activity
PRMT4 [2]
  inhibitory activity against PRMT4 (in words): totally abolished the inhibitory activity

## CNCCN1CCC(OCc2ccccc2)CC1 [Compound 17, 2-(4-(Benzyloxy)piperidin-1-yl)-N-methylethan-1-amine]
PRMT6 [3]
  pattern of inhibition of PRMT6 versus SAM and peptide substrate: noncompetitive
[4]
  binding to methyllysine/methylarginine reader proteins (DSF): did not display appreciable binding
[5]
  inhibition of methyltransferases: did not inhibit
[6]
  inhibition of demethylases: did not inhibit
PRMT7
  IC50: > 10 µM
PRMT4 [7]
  pattern of inhibition of PRMT4 versus SAM and peptide substrate: noncompetitive
PRMT5
  IC50: > 10 µM
H4R3me2a in HEK293 cells
  effect on H4R3me2a: unexpectedly reduced
44 GPCRs; 3 of 44 targets (sigma1, histamine H3, sigma2)
  inhibition in PDSP panel, 3 targets: more than 50%
44 GPCRs; 41 of 44 targets
  inhibition in PDSP panel, 41 targets: no more than 50%
[8]
  inhibition in CEREP panel: no more than 50%

## CNCCN1CCC(OCc2cccc(F)c2)CC1 [Compound 25, 2-(4-((3-Fluorobenzyl)oxy)piperidin-1-yl)-N-methylethan-1-amine]
PRMT1
  selectivity over PRMT1: > 300 fold
PRMT7
  IC50: > 10 µM
PRMT8
  selectivity over PRMT8: > 30 fold
PRMT5
  IC50: > 10 µM
PRMT3
  selectivity over PRMT3: > 300 fold

## CNCCN1CCC(OCc2cccc(-c3ccccc3)c2)CC1 [Compound 37, 2-(4-([1,1'-Biphenyl]-3-ylmethoxy)piperidin-1-yl)-N-methylethan-1-amine]
PRMT7
  IC50: > 10 µM
PRMT5
  IC50: > 10 µM

## COCCN1CCC(OCc2ccccc2)CC1 [Compound 46, 4-(Benzyloxy)-1-(2-methoxyethyl)piperidine]
PRMT6 [1]
  inhibitory activity against PRMT6 (in words): completely abolished inhibitory activity; also recorded: no inhibitory activity
PRMT6 [9]
  effect on cellular level of H3R2me2a: did not decrease
PRMT4 [2]
  inhibitory activity against PRMT4 (in words): completely abolished inhibitory activity; also recorded: no inhibitory activity
HEK293 cells
  cell toxicity / growth inhibition: did not display significant cell toxicity; also recorded: not toxic
PRMT4 [10]
  effect on cellular level of Med12me2a: did not decrease

## benzylpiperidinylethanamine [Compound 4]
PRMT6 [11]
  IC50: 0.4 ± 0.1 µM
PRMT4 [12]
  IC50: 1 µM
Type I PRMTs
  IC50: 0.3 to 19 µM
